The results in this text go back to patent US12116343B2, “Inhibitors of APOL1 and methods of using same” (Vertex Pharmaceuticals Incorporated, priority 2020, dated 2024).

The test addresses T1, G1 APOL1 (Homo sapiens, UniProt O14791, I384M/S342G).
T1 construct: expressed in transfected cells
T1 sequence (O14791 28-398 S342G/I384M): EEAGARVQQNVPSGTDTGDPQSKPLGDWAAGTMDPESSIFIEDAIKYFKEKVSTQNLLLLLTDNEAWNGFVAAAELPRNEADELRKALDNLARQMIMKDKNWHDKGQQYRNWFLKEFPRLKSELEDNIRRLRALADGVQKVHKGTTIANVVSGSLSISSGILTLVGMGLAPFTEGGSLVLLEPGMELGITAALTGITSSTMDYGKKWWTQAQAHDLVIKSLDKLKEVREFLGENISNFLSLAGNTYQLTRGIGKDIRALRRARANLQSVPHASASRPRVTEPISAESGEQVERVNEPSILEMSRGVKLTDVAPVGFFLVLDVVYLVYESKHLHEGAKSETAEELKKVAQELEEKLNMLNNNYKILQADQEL
Briefly: Acute APOL1 Thallium Assay with inducible stable clones of HEK 293 cells. Format: cell-based. To be noted: Table 24, Compounds 287 to 465; read-out: Thallium Assay (IC50). In short, it runs like this:
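Readout: Tl+-triggered fluorescence, FLIPR, reflecting potassium flux through APOL1 pores after cells take up an AM-ester thallium indicator. Cells: HEK T-Rex stable clone G1 DC3.25, APOL1 G1 induced by tetracycline, seeded 26000 per well.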
Turning to `O=C(NCC1(O)COC1)NC[C@H]1C[C@H](c2c(-c3ccc(F)cc3)[nH]c3c(F)cc(F)cc32)C1` [Compound 398], the IC50 (in general, the concentration at which inhibition is half-maximal) is above 1000 nM.

Take `O=C(NCC1(O)CC1)NC[C@H]1C[C@H](c2c(-c3ccc(F)cc3)[nH]c3c(F)cc(F)cc32)C1` [Compound 399]: the IC50 is above 1000 nM. To `O=C(NC[C@H]1C[C@H](c2c(-c3ccc(F)cc3)[nH]c3c(F)cc(F)cc32)C1)NC1(CO)CC(F)(F)C1` [Compound 400] belongs above 1000 nM; to `CC1(O)CC(NC(=O)NC[C@H]2C[C@H](c3c(-c4ccc(F)cc4)[nH]c4c(F)cc(F)cc43)C2)C1` (stereo partly shown) [Compound 401], above 1000 nM; to `O=C(NC[C@H]1C[C@H](c2c(-c3ccc(F)cc3)[nH]c3c(F)cc(F)cc32)C1)N[C@H]1CC[C@@H]1O` [Compound 402], above 1000 nM. To `CC1(C)CC(NC(=O)NC[C@H]2C[C@H](c3c(-c4ccc(F)cc4)[nH]c4c(F)cc(F)cc43)C2)C(=O)O1` (stereo partly shown) [Compound 403] belongs above 1000 nM.

In the case of `C[C@H](CO)N(C)C(=O)NC[C@H]1C[C@H](c2c(-c3ccc(F)cc3)[nH]c3c(F)cc(F)cc32)C1` [Compound 404], the IC50 is above 1000 nM.

On to `O=C(NC[C@H]1C[C@H](c2c(-c3ccc(F)cc3)[nH]c3c(F)cc(F)cc32)C1)N1CCC[C@@H]1CO` [Compound 405], for which the IC50 is above 1000 nM.

Regarding `O=C(NC[C@H](O)C(F)(F)F)NC[C@H]1C[C@H](c2c(-c3ccc(F)cc3)[nH]c3c(F)cc(F)cc32)C1` [Compound 406], the IC50 was above 1000 nM.

As to `C[C@@H](O)CNC(=O)NC[C@H]1C[C@H](c2c(-c3ccc(F)cc3)[nH]c3c(F)cc(F)cc32)C1` [Compound 407], the IC50 was above 1000 nM. Take `C[C@]1(NC(=O)NC[C@H]2C[C@H](c3c(-c4ccc(F)cc4)[nH]c4c(F)cc(F)cc43)C2)C[C@@H](O)C1` [Compound 408]: the IC50 was above 1000 nM. To `C[C@H](CO)NC(=O)NC[C@H]1C[C@H](c2c(-c3ccc(F)cc3)[nH]c3c(F)cc(F)cc32)C1` [Compound 409] belongs above 1000 nM. Next, `CCNC(=O)NC[C@H]1C[C@H](c2c(-c3ccc(F)cc3)[nH]c3c(F)cc(F)cc32)C1` [Compound 410]: above 1000 nM; `O=C(NC[C@H]1C[C@H](c2c(-c3ccc(F)cc3)[nH]c3c(F)cc(F)cc32)C1)N[C@H]1C[C@H](O)C1` [Compound 411]: above 1000 nM; `O=C(NC[C@H]1C[C@H](c2c(-c3ccc(F)cc3)[nH]c3c(F)cc(F)cc32)C1)N[C@@H](CO)C(F)(F)F` [Compound 413]: above 1000 nM.

As to `C[C@@H](CO)NC(=O)NC[C@H]1C[C@H](c2c(-c3ccc(F)cc3)[nH]c3c(F)cc(F)cc32)C1` [Compound 414], the IC50 was above 1000 nM. Next, `CN(C(=O)NC[C@H]1C[C@H](c2c(-c3ccc(F)cc3)[nH]c3c(F)cc(F)cc32)C1)C1COCC1O` (stereo partly shown) [Compound 415]: above 1000 nM. Take `CC(C)(C)[C@H](CO)NC(=O)NC[C@H]1C[C@H](c2c(-c3ccc(F)cc3)[nH]c3c(F)cc(F)cc32)C1` [Compound 416]: the IC50 was above 1000 nM. To `O=C(NCC1CCNC1=O)NC[C@H]1C[C@H](c2c(-c3ccc(F)cc3)[nH]c3c(F)cc(F)cc32)C1` (stereo partly shown) [Compound 417] belongs above 1000 nM. Next, `CC[C@H](CO)NC(=O)NC[C@H]1C[C@H](c2c(-c3ccc(F)cc3)[nH]c3c(F)cc(F)cc32)C1` [Compound 418]: above 1000 nM. As for `O=C(NC[C@H]1C[C@H](c2c(-c3ccc(F)cc3)[nH]c3c(F)cc(F)cc32)C1)N[C@H]1CC[C@H](O)C1` [Compound 419], the IC50 is above 1000 nM. Next, `O=C(NC[C@H]1C[C@H](c2c(-c3ccc(F)cc3)[nH]c3c(F)cc(F)cc32)C1)NC1CC(O)C1` (stereo partly shown) [Compound 420]: above 1000 nM; `CC[C@@H](CO)NC(=O)NC[C@H]1C[C@H](c2c(-c3ccc(F)cc3)[nH]c3c(F)cc(F)cc32)C1` [Compound 421]: above 1000 nM.

On to `O=C(NC[C@H]1CC[C@@H](CO)O1)NC[C@H]1C[C@H](c2c(-c3ccc(F)cc3)[nH]c3c(F)cc(F)cc32)C1` [Compound 422], for which the IC50 is above 1000 nM. On to `CC(C)(O)CNC(=O)NC[C@H]1C[C@H](c2c(-c3ccc(F)cc3)[nH]c3c(F)cc(F)cc32)C1` [Compound 423], for which the IC50 is above 1000 nM. Consider `O=C(NC[C@@H](O)C(F)(F)F)NC[C@H]1C[C@H](c2c(-c3ccc(F)cc3)[nH]c3c(F)cc(F)cc32)C1` [Compound 424], for which the IC50 is above 1000 nM.

On to `O=C(NC[C@H]1C[C@H](c2c(-c3ccc(F)cc3)[nH]c3c(F)cc(F)cc32)C1)NC1(CO)CCOC1` (stereo partly shown) [Compound 425], for which the IC50 was above 1000 nM. Next, `CN(CC1CC(c2c(-c3ccc(F)cc3)[nH]c3c(F)cc(F)cc23)C1)C(=O)NCc1cn(C)cn1` (stereo not shown) [Compound 427, 1-((3-(5,7-difluoro-2-(4-fluorophenyl)-1H-indol-3-yl)cyclobutyl)methyl)-1-methyl-3-((1-methyl-1H-imidazol-4-yl)methyl)urea]: above 1000 nM; `CNC(=O)N(C)CC1CC(c2c(-c3ccc(F)cc3)[nH]c3c(F)cc(F)cc23)C1` (stereo not shown) [Compound 428]: above 1000 nM; `C[C@@H](O)CNC(=O)N(C)CC1CC(c2c(-c3ccc(F)cc3)[nH]c3c(F)cc(F)cc23)C1` (stereo partly shown) [Compound 429]: above 1000 nM. Next, `C[C@H](O)CNC(=O)N(C)CC1CC(c2c(-c3ccc(F)cc3)[nH]c3c(F)cc(F)cc23)C1` (stereo partly shown) [Compound 430]: above 1000 nM; `CN(CC1CC(c2c(-c3ccc(F)cc3)[nH]c3c(F)cc(F)cc23)C1)C(=O)NCCO` (stereo not shown) [Compound 431]: above 1000 nM. Turning to `CN(CC1CC(c2c(-c3ccc(F)cc3)[nH]c3c(F)cc(F)cc23)C1)C(=O)N1CCC1` (stereo not shown) [Compound 432], the IC50 is above 1000 nM. For the compound `C[C@H](NCC1CC(c2c(-c3ccc(F)cc3)[nH]c3c(F)cc(F)cc23)C1)C(=O)N(C)C` (stereo partly shown) [Compound 434], the IC50 is 250 to 1000 nM.

On to `CN(C)C(=O)CNCC1CC(c2c(-c3ccc(F)cc3)[nH]c3c(F)cc(F)cc23)C1` (stereo not shown) [Compound 435], for which the IC50 fell in the range of 250 to 1000 nM. To `NC(=O)C(CO)NCC1CC(c2c(-c3ccc(F)cc3)[nH]c3c(F)cc(F)cc23)C1` (stereo not shown) [Compound 437] belongs 250 to 1000 nM; to `C[C@@H](NCC1CC(c2c(-c3ccc(F)cc3)[nH]c3c(F)cc(F)cc23)C1)C(=O)N(C)C` (stereo partly shown) [Compound 438], above 1000 nM. To `C[C@H](NCC1CC(c2c(-c3ccc(F)cc3)[nH]c3c(F)cc(F)cc23)C1)C(N)=O` (stereo partly shown) [Compound 439] belongs above 1000 nM; to `CC(C)(NCC1CC(c2c(-c3ccc(F)cc3)[nH]c3c(F)cc(F)cc23)C1)C(N)=O` (stereo not shown) [Compound 440], above 1000 nM; to `CC(C)CC(NCC1CC(c2c(-c3ccc(F)cc3)[nH]c3c(F)cc(F)cc23)C1)C(N)=O` (stereo not shown) [Compound 441], above 1000 nM. Turning to `CC(C)(NCC1CC(c2c(-c3ccc(F)cc3)[nH]c3c(F)cc(F)cc23)C1)C(=O)NCC(F)(F)F` (stereo not shown) [Compound 442], the IC50 was above 1000 nM.

For the compound `CC[C@H](NCC1CC(c2c(-c3ccc(F)cc3)[nH]c3c(F)cc(F)cc23)C1)C(=O)NCC(F)(F)F` (stereo partly shown) [Compound 443], the IC50 is above 1000 nM. Next, `CN1CCN(C(=O)CNCC2CC(c3c(-c4ccc(F)cc4)[nH]c4c(F)cc(F)cc34)C2)CC1` (stereo not shown) [Compound 444]: above 1000 nM. To `NC(=O)CNC[C@H]1C[C@H](c2c(-c3ccc(F)cc3)[nH]c3c(F)cc(F)cc32)C1` [Compound 445, 2-((((1r,3r)-3-(5,7-difluoro-2-(4-fluorophenyl)-1H-indol-3-yl)cyclobutyl)methyl)amino)acetamide] belongs below 250 nM. Consider `CNC(=O)CNC[C@H]1C[C@H](c2c(-c3ccc(F)cc3)[nH]c3c(F)cc(F)cc32)C1` [Compound 446], for which the IC50 is below 250 nM. Next, `O=C(CNC[C@H]1C[C@H](c2c(-c3ccc(F)cc3)[nH]c3c(F)cc(F)cc32)C1)NCO` [Compound 448]: below 250 nM; `O=C(CNC[C@H]1C[C@H](c2c(-c3ccc(F)cc3)[nH]c3c(F)cc(F)cc32)C1)NC1CC1` [Compound 449]: 250 to 1000 nM; `CON(C)C(=O)CNC[C@H]1C[C@H](c2c(-c3ccc(F)cc3)[nH]c3c(F)cc(F)cc32)C1` [Compound 450]: 250 to 1000 nM. Next, `CC(C)NC(=O)CNC[C@H]1C[C@H](c2c(-c3ccc(F)cc3)[nH]c3c(F)cc(F)cc32)C1` [Compound 451]: above 1000 nM; `O=C(CC1CC(c2c(-c3ccc(F)cc3)[nH]c3c(F)cc(F)cc23)C1)NC1(CO)CCC1` (stereo not shown) [Compound 452, 2-[3-[5,7-difluoro-2-(4-fluorophenyl)-1H-indol-3-yl]cyclobutyl]-N-[1-(hydroxymethyl)cyclobutyl]acetamide]: above 1000 nM. For the compound `O=C(CC1CC(c2c(-c3ccc(F)cc3)[nH]c3c(F)cc(F)cc23)C1)NC1(CO)CC1` (stereo not shown) [Compound 453], the IC50 was 250 to 1000 nM. To `C[C@H](CO)NC(=O)CC1CC(c2c(-c3ccc(F)cc3)[nH]c3c(F)cc(F)cc23)C1` (stereo partly shown) [Compound 454] belongs above 1000 nM; to `O=C(CC1CC(c2c(-c3ccc(F)cc3)[nH]c3c(F)cc(F)cc23)C1)N[C@H]1CCNC1=O` (stereo partly shown) [Compound 456], above 1000 nM. `O=C(CC1CC(c2c(-c3ccc(F)cc3)[nH]c3c(F)cc(F)cc23)C1)N[C@@H]1CCNC1=O` (stereo partly shown) [Compound 457]: the IC50 was above 1000 nM. To `C[C@@H](CO)NC(=O)CC1CC(c2c(-c3ccc(F)cc3)[nH]c3c(F)cc(F)cc23)C1` (stereo partly shown) [Compound 458] belongs above 1000 nM.
